Assays:
[1] = Pharmacokinetic study of colon contents and plasma after oral dose of conjugate; assay type: in vivo, male C57B3L/6 mice; conditions: mouse, in vivo, po
Protocol: To confirm that the active agent component of the conjugate is released in the gastrointestinal tract, a pharmacokinetic study was conducted in male C57B3L/6 mice examining conjugate and active agent of concentrations in both the colon contents and plasma after oral dose of conjugate. Conjugate and active agent of were quantified by LCMS at 0 (pre-dose), 0.25, 0.5, 1, 2, 4, 6, 8, 12, and 24 hours post-dose of compound.

[2] = target: CutC from Proteus mirabilis (Proteus mirabilis, UniProt B4EYG1); test: Cell-based assay for TMA production from a native producer (P. mirabilis); conditions: d9-TMA from 1 mM d9-choline, 5 h, 37° C.; value 10 given when no fit or % TMA remaining at 10 μM higher than 15%; read-out: Average IC50 Whole cell P. mirabilis
Chain of CutC from Proteus mirabilis (B4EYG1 entry or part of it): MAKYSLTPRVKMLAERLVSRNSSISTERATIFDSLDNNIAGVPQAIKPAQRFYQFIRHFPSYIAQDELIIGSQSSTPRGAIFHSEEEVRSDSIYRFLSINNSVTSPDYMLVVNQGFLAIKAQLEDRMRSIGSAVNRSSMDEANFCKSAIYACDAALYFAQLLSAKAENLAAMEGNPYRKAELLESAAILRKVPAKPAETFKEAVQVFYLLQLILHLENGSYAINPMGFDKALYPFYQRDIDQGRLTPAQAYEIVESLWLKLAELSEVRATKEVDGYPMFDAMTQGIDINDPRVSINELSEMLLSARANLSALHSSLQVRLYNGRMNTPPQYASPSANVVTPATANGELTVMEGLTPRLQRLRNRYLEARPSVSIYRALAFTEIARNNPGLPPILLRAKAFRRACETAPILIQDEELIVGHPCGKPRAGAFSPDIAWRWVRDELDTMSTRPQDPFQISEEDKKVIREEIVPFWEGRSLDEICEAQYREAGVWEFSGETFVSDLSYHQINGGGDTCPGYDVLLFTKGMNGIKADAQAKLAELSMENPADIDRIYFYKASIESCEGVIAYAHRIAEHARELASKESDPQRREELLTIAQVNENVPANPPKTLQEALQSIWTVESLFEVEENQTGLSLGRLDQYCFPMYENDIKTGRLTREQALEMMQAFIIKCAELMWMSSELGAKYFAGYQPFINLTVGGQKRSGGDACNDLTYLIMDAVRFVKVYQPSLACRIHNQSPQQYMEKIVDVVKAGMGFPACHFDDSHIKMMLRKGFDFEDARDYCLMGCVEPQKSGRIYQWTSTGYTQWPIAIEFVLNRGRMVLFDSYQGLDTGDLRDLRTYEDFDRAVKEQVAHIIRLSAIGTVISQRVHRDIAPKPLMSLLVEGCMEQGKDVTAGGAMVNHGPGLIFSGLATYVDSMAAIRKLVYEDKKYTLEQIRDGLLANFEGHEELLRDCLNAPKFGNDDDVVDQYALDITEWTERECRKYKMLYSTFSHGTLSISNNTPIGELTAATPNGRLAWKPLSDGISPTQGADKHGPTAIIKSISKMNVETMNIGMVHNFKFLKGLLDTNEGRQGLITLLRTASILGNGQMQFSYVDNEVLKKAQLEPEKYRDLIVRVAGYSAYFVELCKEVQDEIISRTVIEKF
Chain of CutC from Proteus mirabilis (B4EYG0 entry or part of it, further chain): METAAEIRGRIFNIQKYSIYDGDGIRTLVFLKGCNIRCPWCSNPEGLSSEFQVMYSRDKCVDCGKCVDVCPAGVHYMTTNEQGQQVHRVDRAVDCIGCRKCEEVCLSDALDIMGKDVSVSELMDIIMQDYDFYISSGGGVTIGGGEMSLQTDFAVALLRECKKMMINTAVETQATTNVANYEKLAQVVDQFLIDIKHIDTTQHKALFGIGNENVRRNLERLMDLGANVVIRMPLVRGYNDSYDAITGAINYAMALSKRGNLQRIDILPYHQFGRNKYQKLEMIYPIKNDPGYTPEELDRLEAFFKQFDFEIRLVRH
How it was run: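 Overnight anaerobic cultures of P. mirabilis or C. sporogenes, grown in BHI with 1 mM choline, were diluted and given 1 mM (trimethyl-d9)-choline plus compound at 10 μM final. After 5 h at 37° C., d9-TMA was quantified by LCMS.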

[3] = assay type: in vitro ADME; conditions: simulated gi fluid, 1 µM, pH 6.7
Protocol: This assay was used to assess the stability of a conjugate in a small intestine.
Phosphate buffer was prepared by dissolving 0.42 g of sodium hydroxide pellets and 3.95 g of monobasic sodium phosphate monohydrate and 6.19 g of sodium chloride in ultrapure water (MilliQ®, Millipore Sigma, Darmstadt, Germany). The pH was adjusted to 6.7 using aq. HCl and aq. NaOH, as necessary, and the solution was diluted with ultrapure water to produce 1 L of the pH 6.7 buffer.
112 mg FaSSIF powder (Biorelevant™, London, UK) was dissolved in 50 mL of the pH 6.7 buffer. 2 to 3 mL of the resulting solution were then added to 500 mg pancreatin (Millipore Sigma, Darmstadt, Germany). The resulting mixture was agitated by finger tapping the vessel containing the mixture until milky suspension formed. At this time, the remainder of the 50 mL FaSSiF/pH 6.7 buffer solution was added. The resulting suspension was flipped upside down 10 times to produce SIF, which was used fresh.
Test compounds were dissolved in DMSO stock to 1 mM. An aliquot of the DMSO stock solution was removed and diluted in the SIF media in 15 mL falcon tubes to produce a mixture with a tested compound concentration of 1 μM. A 1 mL aliquot was immediately removed and diluted once with 1 volume of acetonitrile for T0 timepoint. The mixture was sealed and agitated at 37° C. in an incubator. Aliquots (1 mL) were removed at regular intervals and immediately quenched by the addition of 1 volume of acetonitrile. The resulting samples were analyzed by LCMS to determine degradation rates.

[4] = assay type: in vitro ADME; conditions: simulated gi fluid, 1 µM, pH 1.6
Protocol: This assay was used to assess the stability of a conjugate in a stomach.
Medium was prepared by dissolving 2 g of sodium chloride in 0.6 L in ultrapure water (MilliQ®, Millipore Sigma, Darmstadt, Germany). The pH was adjusted to 1.6 with 1N hydrochloric acid, and the volume was then adjusted to 1 L with purified water.
60 mg FaSSIF powder (Biorelevant™, London, UK) were dissolved in 500 mL buffer (above). Pepsin was added (0.1 mg/mL) (Millipore Sigma, Darmstadt, Germany), and the solution was stirred. The resulting SGF media were used fresh for each experiment.
Test compounds were dissolved in DMSO stock to 1 mM. An aliquot of the DMSO stock solution was removed and diluted in the SGF Media in 15 mL falcon tubes to generate a total compound concentration of 1 μM. A 1 mL aliquot was immediately removed and diluted once with 1 volume of acetonitrile for T0 timepoint. The mixture was sealed and mixed at 37° C. in an incubator. Aliquots (1 mL) were removed at regular intervals and immediately quenched by the addition of 1 volume of acetonitrile. The resulting samples were analyzed by LCMS to determine degradation rates in SGF.

[5] = assay type: in vitro ADME; conditions: 1 µM
Protocol: This assay was used to assess the stability of a conjugate in a large intestine.
All experiments were performed in an anaerobic chamber containing 90% nitrogen, 5% hydrogen and 5% carbon dioxide. Colonic material was resuspended as a slurry (15% w/v final concentration) in pre-reduced, anaerobically sterilized dilution blanks (Anaerobe Systems AS-908). The colonic material was then inoculated into 96 well plates containing YCFAC media (Anaerobe Systems AS-680, 6.7 μL slurry into 1 mL total media). A compound was added to each individual well to reach a final analyte concentration of 1 μM, and the material was mixed by pipetting. Each sample was removed after set timepoints (0, 120, 240, 480, 1440, 2880 minutes after initiation of the assay), quenched with acetonitrile containing internal standard, and analyzed by LCMS.

[6] = test system: enzymatic activity in fecal matter; test: Inhibition of enzymatic activity in fecal matter; assay type: cell-based; conditions: d9-choline 1 mM, 16 hours at 37° C., anaerobic, d9-TMA by LCMS
Protocol: Inhibition of enzymatic activity in fecal matter was determined by adding a substrate (d9-choline, 1 mM final concentration) and a compound in a range of concentrations in order to determine an IC50. After incubation for a designated 16 hours at 37° C. in anaerobic conditions, samples were be prepared for LCMS analysis, and the amount of d9-TMA produced was determined using LCMS analysis as in the Examples above.

Structure (SMILES): CC(=O)OC[C@H]1O[C@@H](OCC[N+](C)(C)C2CC2)[C@H](OC(C)=O)[C@@H](OC(C)=O)[C@@H]1OC(C)=O.[I-] [Compound 80, N,N-dimethyl-N-(2-{[(3R,4S,5R,6R)-3,4,5-tris(acetyloxy)-6-[(acetyloxy)methyl]oxan-2-yl]oxy}ethyl)cyclopropanaminium Iodide]
- Plasma Cmax [1]: Not
- IC50 [2]: ≥ 10 µM
- Assay 2- FaSSIF Stability: % Remaining at 4 hr [3]: 99.34%
- Assay 1- FaSSGF Stability: % Remaining at 1 hr [4]: 145.32%
- Assay 3- Colonic Material Stability Assay % Remaining at 24 hr [5]: 25%
- IC50 [6]: 0.38 µM

Reference: patent US20220041641A1, “QUATERNARY AMMONIUM SALTS AS INHIBITORS OF TRIMETHYLAMINE PRODUCTION” (Senda Biosciences, Inc., priority 2018, published 2022)
